According to EP1674468A1, “Polymorphs of clopidogrel hydrobromide” (Ratiopharm GmbH, priority 2004, dated 2006):
Counter-ions that a name gives are not always drawn. Like-named read-outs stand apart in the source and are kept apart here. Blank lines part the entries; values can stand above or below the compound they belong to.

Columns and labels:
[1] = 100 mg in 5 ml, water bath at 80-100°C
Description: Method example 1: 100 mg of clopidogrel hydrobromide HY-1 obtained according to example Ba) was dissolved in 5 ml of the solvent on a water bath at 80-100°C with constant shaking and the solvent was allowed to evaporate slowly at room temperature for 24 hours at ambient pressure.

[2] = benzene/ acetonitrile 1:1, method example b (dissolved at 70°C, evaporation 24 hours at room temperature)
Description: Method example b: 100 mg of clopidogrel hydrobromide HY-1 were dissolved in 3-5 ml of the first solvent at a temperature of 70°C. 8-10 ml of the second solvent were added to the solution over 3-5 minutes to reduce the polarity until it becomes a saturated solution. The solvent mixture was allowed to evaporate for 24 hours at room temperature at ambient pressure for 24 hours. The precipitate was filtered off.

[3] = Description: Example 10: Stability of the forms (solvent mediated transformation studies)
To assess the stability of the anhydrous Forms A and B, solvent mediated transformation experiments were performed. […] This was tested by viewing a few crystals of Form A/Form B under the microscope by placing them on a glass plate with a cover-slip, adding a drop of water and spreading around the cover. […] Table 3: Results of the solvent mediated transformation studies

platelet aggregation = conditions: 75 mg of base equivalent versus 325 mg of acetyl salicylic acid; cited from earlier work
[4] = in vivo; cited from earlier work
[5] = room temperature, closed glass container, after 8 to 10 month; PXRD, DSC, Raman
Excerpt: Polymorph Form B of clopidogrel hydrobromide obtained in example 2a) was stored at room temperature in a closed glass container.

Structure (SMILES): COC(=O)[C@H](c1ccccc1Cl)N1CCc2sccc2C1 [Form HY-1, clopidogrel hydrobromide]
solubility ([1]; solvent acetic acid): highly soluble
solubility ([1]; solvent acetone): soluble
solubility ([1]; solvent acetonitrile): soluble
solubility ([1]; solvent benzene): sparingly soluble
solubility ([1]; solvent chloroform): highly soluble
solubility ([1]; solvent cyclohexane): insoluble
solubility ([1]; solvent dichloromethane): highly soluble
solubility ([1]; solvent diethylether): insoluble
solubility ([1]; solvent dimethylformamide): soluble
solubility ([1]; solvent dioxane): soluble in hot
solubility ([1]; solvent ethanol): highly soluble
solubility ([1]; solvent ethylacetate): soluble in hot
solubility ([1]; solvent i-propanol): highly soluble
solubility ([1]; solvent methanol): highly soluble
solubility ([1]; solvent n-butanol): highly soluble
solubility ([1]; solvent n-decane): insoluble
solubility ([1]; solvent n-hexane): insoluble
solubility ([1]; solvent n-pentanol): soluble
solubility ([1]; solvent n-propanol): highly soluble
solubility ([1]; solvent nitromethane): soluble
solubility ([1]; solvent petrolether): insoluble
solubility ([1]; solvent tetrachloromethane): insoluble
solubility ([1]; solvent tetrahydrofurane): soluble in hot
solubility ([1]; solvent toluene): soluble in hot
solubility ([1]; solvent water): sparingly soluble in hot
solubility ([1]; solvent xylene): soluble in hot
Remarks (behaviour in the solvent mixture) [2]: Decomposition

Structure (SMILES): COC(=O)[C@H](c1ccccc1Cl)N1CCc2sccc2C1 [Form A, clopidogrel hydrobromide]
time span within which needle like crystals corresponding to HY-1 were formed ([3]; a few crystals on a glass plate under the microscope, a drop of water added): ≤ 30 min
time span within which the form is converted to the hydrate, i.e. HY-1 ([3]; apolar solvents containing minimal amounts of water): ≤ 1 h
Resulting form ([3]; solvent water, 30 min/25°C): HY-1

Structure (SMILES): COC(=O)[C@H](c1ccccc1Cl)N1CCc2sccc2C1 [Clopidogrel, (αS)-α-(2-chlorophenyl)-6,7-dihydrothieno[3,2-c]-pyridine-5(4H)-acetic acid methyl ester]
effectiveness in blocking platelet aggregation versus acetyl salicylic acid (platelet aggregation): more effective
gastrointestinal bleeding versus acetyl salicylic acid [4]: much less

The remaining lines, values ahead:

polymorphic form identified after storage [5]: Form E
Structure (SMILES): COC(=O)[C@H](c1ccccc1Cl)N1CCc2sccc2C1 [Form B, clopidogrel hydrobromide]

Resulting form ([3]; solvent toluene, 1 day/10-30°C): HY-2
Resulting form ([3]; solvent water, 1 day/20°C): HY-1
polymorph produced on stirring ([3]; toluene (200 mg in 3-5 ml), 10-30°C, 1-4 days, formed after 1 day, confirmed after 4 days and 2-4 weeks by PXRD, DSC, TGA, Raman): HY-2
Structure (SMILES): COC(=O)[C@H](c1ccccc1Cl)N1CCc2sccc2C1 [A:B (1:1), clopidogrel hydrobromide]
